{
  "source": "paper PMC11239938",
  "about": "“Inhibition of DUSP18 impairs cholesterol biosynthesis and promotes anti-tumor immunity in colorectal cancer” (Nature Communications, 2024)",
  "key": {"DUSP18 [1]": {"target": "T1, DUSP18 (Homo sapiens, UniProt Q8NEJ0)", "T1 construct": "purified human DUSP18 for MST (Methods: cell samples lysed with RIPA buffer); recombinant GST-DUSP18-His for dephosphorylation assay; endogenous in HCT116 and SW480 cells for CETSA", "T1 sequence (Q8NEJ0 1-188)": "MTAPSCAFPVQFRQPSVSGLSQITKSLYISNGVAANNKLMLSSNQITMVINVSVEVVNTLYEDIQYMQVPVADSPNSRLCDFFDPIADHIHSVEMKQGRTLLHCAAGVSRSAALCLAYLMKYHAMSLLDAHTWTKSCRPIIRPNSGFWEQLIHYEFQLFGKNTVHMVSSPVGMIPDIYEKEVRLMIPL", "assay": "microscale thermophoresis", "description": "microscale thermophoresis on DUSP18 | Kd) value was determined as the binding of Lumacaftor to purified human DUSP18"}, "DUSP18 [2]": {"target": "T1, DUSP18", "assay": "in vitro dephosphorylation of Flag-USF1, phospho-immunoblot", "type": "biochemical", "conditions": "40 μM Lumacaftor; recombinant GST-DUSP18-His; substrate Flag-USF1 WT"}},
  "data": [
    {"compound": "Cc1ccc(NC(=O)C2(c3ccc4c(c3)OC(F)(F)O4)CC2)nc1-c1cccc(C(=O)O)c1", "note": "[Lumacaftor]", "values": [
      {"measurement": "Kd", "setting": "DUSP18 [1]", "result": "29.5 ± 3.5", "unit": "µM"},
      {"measurement": "in vitro dephosphorylation of Flag-USF1, phospho-immunoblot", "setting": "DUSP18 [2]", "result": "Lumacaftor inhibited the ability of purified DUSP18 to dephosphorylate WT USF1"}
    ]}
  ]
}
